Source: US20260042764A1, “COMPOSITIONS AND METHODS FOR INHIBITION OF KRAS” (TheRas, Inc., priority 2022, published 2026)

Columns and labels:
[1] = test system: SW620 cells (KRAS G12V); assay: Cell-based pERK HTRF assay in SW620 cell (Biological Example 4); conditions: pERK HTRF
Outline: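 SW620 (KRAS G12V) cells seeded at 3×10^4/well in RPMI, 10% FBS, then treated next day for 4 h with a 9-point half-log series from 1 μM top (0.25% DMSO). Lysates analyzed for pERK by HTRF (Eu cryptate/d2 antibodies, 4–24 h at room temperature), excitation 320 nm, emission 615 nm.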

[2] = molecular target: T1, Avi-KRAS G12R (1-169) GppNHp/RAF1 RBD-3xFLAG (52-151) (Homo sapiens, UniProt P01116, G12R); assay: Raf1-KRAS G12R-GppNHP disruption HTRF assay (Biological Example 1); format: binding
T1 construct: Avi-KRAS G12R (1-169)
Outline: (§1)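 Read-out is HTRF signal of the KRAS–RAF1 RBD complex, reported as percentage of activity relative to DMSO (100%). Protein mix and detection reagents each incubated 1 h at room temperature with 700 rpm shaking. Buffer: 50 mM Tris pH 7.5, 100 mM NaCl, 5 mM MgCl2, 0.1% BSA, 0.01% Tween, 10% DMSO.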

[3] = molecular target: T2, Avi-KRAS G12D (1-169) GppNHp/RAF1 RBD-3xFLAG (52-151) (Homo sapiens, UniProt P01116, G12D); assay: Raf1-KRAS G12D-GppNHP disruption HTRF assay (Biological Example 1); format: binding
T2 construct: Avi-KRAS G12D (1-169)
Outline: as §1

[4] = test system: GP2d cells (KRAS G12D); assay: Cell-based pERK HTRF assay in GP2d cell (Biological Example 2); conditions: GP2d (KRAS G12D) cells, pERK HTRF
Outline: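 Phospho-ERK in lysed cells was detected by HTRF using Eu cryptate and d2 antibodies, read between 4 and 24 h at room temperature. Prior to lysis, KRAS G12D GP2d cells, seeded the day before in DMEM with 10% FBS, were exposed to compounds for 60 min. Compounds were tested as 9-point half-log curves from 1 μM or 100 nM top, with 0.25% DMSO.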

[5] = molecular target: T3, Avi-KRAS WT (1-169) GppNHp/RAF1 RBD-3xFLAG (52-151) (Homo sapiens, UniProt P01116); assay: Raf1-KRAS WT-GppNHP disruption HTRF assay (Biological Example 1); format: binding
T3 construct: Avi-KRAS WT (1-169)
Outline: as §1

[6] = molecular target: T4, Avi-KRAS G12V (1-169) GppNHp/RAF1 RBD-3xFLAG (52-151) (Homo sapiens, UniProt P01116, G12V); assay: Raf1-KRAS G12V-GppNHP disruption HTRF assay (Biological Example 1); format: binding
T4 construct: Avi-KRAS G12V (1-169)
Outline: as §1

[7] = KRAS G12R, GppNHp-loaded, Table 11
[8] = KRAS G12D, GppNHp-loaded, Table 11
[9] = KRAS WT, GppNHp-loaded, Table 11
[10] = KRAS G12V, GppNHp-loaded, Table 11
[11] = Homo sapiens, SW-620, SW620 (KRAS G12V) cells, class symbols
[12] = KRAS G12R, GppNHp-loaded, class symbols
[13] = KRAS G12D, GppNHp-loaded, class symbols
[14] = KRAS WT, GppNHp-loaded, class symbols
[15] = KRAS G12V, GppNHp-loaded, class symbols
[16] = Homo sapiens, SW-620, SW620 (KRAS G12V) cells

T3 sequence (P01116 1-169 isoform P01116-2): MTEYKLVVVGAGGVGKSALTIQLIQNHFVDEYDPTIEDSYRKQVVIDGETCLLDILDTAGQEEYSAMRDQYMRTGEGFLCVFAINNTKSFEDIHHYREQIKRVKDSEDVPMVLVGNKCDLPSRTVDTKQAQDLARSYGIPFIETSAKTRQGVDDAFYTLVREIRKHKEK
T4 sequence (P01116 1-169 isoform P01116-2 G12V): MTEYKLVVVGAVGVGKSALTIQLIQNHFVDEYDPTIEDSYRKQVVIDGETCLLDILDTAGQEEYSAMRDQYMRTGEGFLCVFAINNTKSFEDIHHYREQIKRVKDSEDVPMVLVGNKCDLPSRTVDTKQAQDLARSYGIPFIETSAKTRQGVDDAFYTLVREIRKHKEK
T1 sequence (P01116 1-169 isoform P01116-2 G12R): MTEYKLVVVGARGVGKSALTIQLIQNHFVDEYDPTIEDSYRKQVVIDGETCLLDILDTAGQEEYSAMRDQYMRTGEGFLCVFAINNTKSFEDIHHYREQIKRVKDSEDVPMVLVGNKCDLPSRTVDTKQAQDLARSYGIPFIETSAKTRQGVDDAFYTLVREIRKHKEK
T2 sequence (P01116 1-169 isoform P01116-2 G12D): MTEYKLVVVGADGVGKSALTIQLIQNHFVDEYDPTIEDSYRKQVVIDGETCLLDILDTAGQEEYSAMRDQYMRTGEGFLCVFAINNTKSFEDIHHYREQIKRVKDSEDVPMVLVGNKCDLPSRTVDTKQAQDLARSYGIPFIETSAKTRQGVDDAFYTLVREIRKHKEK

Compound	IC50 [1, 11]	IC50 [2, 12]	IC50 [3, 13]	IC50 ([4]; GP2d, class symbols)	IC50 [5, 14]	IC50 [6, 15]	IC50 [1, 16]	IC50 ([4]; GP2d)	also measured
CC(=O)N1CC[C@H](N(C)c2nc(OC[C@@]34CCCN3C[C@H](F)C4)nc3c(F)c(-c4ccc(F)c5sc(N)c(C#N)c45)c(C(F)(F)F)cc23)[C@@H]1C (single isomer, unassigned) [Compound 195]	–	–	–	–	–	–	–	–	IC50 ([1]; SW620 (KRAS G12V) cells): 100 to 1000 nM; IC50 [2, 7]: 1000 to 10000 nM; IC50 [3, 8]: 1000 to 10000 nM; IC50 [4]: 100 to 1000 nM; IC50 [5, 9]: 1000 to 10000 nM; IC50 [6, 10]: 1000 to 10000 nM
CCN(c1nc(OC[C@@]23CCCN2C[C@H](F)C3)nc2c(F)c(-c3ccc(F)c4sc(N)c(C#N)c34)c(C(F)(F)F)cc12)[C@H]1C[C@H](C)N(C(=O)c2ccon2)C1 (atropisomer, axis not shown) [Compound 766]	< 100 nM	< 100 nM	< 100 nM	< 100 nM	< 100 nM	< 100 nM	–	–	–
CC1(O)COCCN(c2nc(OC[C@@]34CCCN3C[C@H](F)C4)nc3c(F)c(-c4ccc(F)c5sc(N)c(C#N)c45)c(C(F)(F)F)cc23)C1 (stereo partly drawn) [Compound 244]	–	–	–	–	–	–	< 100 nM	< 100 nM	IC50 [2, 7]: 100 to 1000 nM; IC50 [3, 8]: 100 to 1000 nM; IC50 [5, 9]: 100 to 1000 nM; IC50 [6, 10]: 100 to 1000 nM
N#Cc1c(N)sc2c(F)ccc(-c3c(C(F)(F)F)cc4c(N5CCn6nc(C(=O)N7CCCC7)cc6C5)nc(OCC56CCCN5CC(F)C6)nc4c3F)c12 (stereo not drawn) [Compound 627]	< 100 nM	< 100 nM	< 100 nM	< 100 nM	100 to 1000 nM	< 100 nM	–	–	–
N#Cc1c(N)sc2c(F)ccc(-c3c(C(F)(F)F)cc4c(N5CCC[C@H](O)C5)nc(OC[C@@]56CCCN5C[C@H](F)C6)nc4c3F)c12 [Compound 236]	–	–	–	–	–	–	< 100 nM	< 100 nM	IC50 [2, 7]: 100 to 1000 nM; IC50 [3, 8]: 100 to 1000 nM; IC50 [5, 9]: 100 to 1000 nM; IC50 [6, 10]: 100 to 1000 nM
N#Cc1c(N)sc2c(F)ccc(-c3c(C(F)(F)F)cc4c(N5CC[C@@H]5CF)nc(OC[C@@]56CCCN5C[C@H](F)C6)nc4c3F)c12 [Compound 272]	–	–	–	–	–	–	< 100 nM	< 100 nM	IC50 [2, 7]: 100 to 1000 nM; IC50 [3, 8]: 100 to 1000 nM; IC50 [5, 9]: 100 to 1000 nM; IC50 [6, 10]: 100 to 1000 nM
CCN(c1nc(OC[C@@]23CCCN2C[C@H](F)C3)nc2c(F)c(-c3ccc(F)c4sc(N)c(C#N)c34)c(C(F)(F)F)cc12)[C@H]1CCN(C(=O)[C@@H]2CC2(F)F)[C@@H]1C (atropisomer, axis not shown) [Compound 693]	< 100 nM	< 100 nM	< 100 nM	< 100 nM	< 100 nM	< 100 nM	–	–	–
N#Cc1c(N)sc2c(F)ccc(-c3c(C(F)(F)F)cc4c(N5CCn6nc(C(=O)N7CCC(O)C7)cc6C5)nc(OCC56CCCN5CC(F)C6)nc4c3F)c12 (stereo not drawn) [Compound 513]	–	–	–	–	–	–	–	–	IC50 ([1]; SW620 (KRAS G12V) cells): 100 to 1000 nM; IC50 ([2]; KRAS G12R-GppNHp/RAF1 RBD HTRF): 100 to 1000 nM; IC50 ([3]; KRAS G12D-GppNHp/RAF1 RBD HTRF): 100 to 1000 nM; IC50 [4]: < 100 nM; IC50 ([5]; KRAS WT-GppNHp/RAF1 RBD HTRF): 100 to 1000 nM; IC50 ([6]; KRAS G12V-GppNHp/RAF1 RBD HTRF): 100 to 1000 nM
N#Cc1c(N)sc2c(F)ccc(-c3c(C(F)(F)F)cc4c(N5C[C@H]6[C@@H]5CCN6C(=O)C5CC5)nc(OC[C@@]56CCCN5C[C@H](F)C6)nc4c3F)c12 (atropisomer, axis not shown) [Compound 643]	100 to 1000 nM	1000 to 10000 nM	1000 to 10000 nM	100 to 1000 nM	1000 to 10000 nM	1000 to 10000 nM	–	–	–

Second part, led by results:

IC50 [1, 11]	IC50 [2, 12]	IC50 [3, 13]	IC50 ([4]; GP2d, class symbols)	IC50 [5, 14]	IC50 [6, 15]	IC50 [1, 16]	IC50 ([4]; GP2d)	Compound	also measured
< 100 nM	< 100 nM	< 100 nM	< 100 nM	< 100 nM	< 100 nM	–	–	CCN(c1nc(OC[C@@]23CCCN2C[C@H](F)C3)nc2c(F)c(-c3ccc(F)c4sc(N)c(C#N)c34)c(C(F)(F)F)cc12)[C@H]1CCN(C(=O)N2CCC2)C1 (atropisomer, axis not shown) [Compound 574]	–
–	–	–	–	–	–	< 100 nM	< 100 nM	CCN(c1nc(OC[C@@]23CCCN2C[C@H](F)C3)nc2c(F)c(-c3ccc(F)c4sc(N)c(C#N)c34)c(C(F)(F)F)cc12)[C@H]1CC(=O)N(CC(F)F)C1 [Compound 549]	IC50 ([2]; KRAS G12R-GppNHp/RAF1 RBD HTRF): 100 to 1000 nM; IC50 ([3]; KRAS G12D-GppNHp/RAF1 RBD HTRF): < 100 nM; IC50 ([5]; KRAS WT-GppNHp/RAF1 RBD HTRF): 100 to 1000 nM; IC50 ([6]; KRAS G12V-GppNHp/RAF1 RBD HTRF): 100 to 1000 nM
< 100 nM	< 100 nM	< 100 nM	< 100 nM	< 100 nM	< 100 nM	–	–	CCN(c1nc(OCC23CCCN2CC(F)C3)nc2c(F)c(-c3ccc(F)c4sc(N)c(C#N)c34)c(C(F)(F)F)cc12)C1CCN(C(=O)c2oncc2C)C1 (stereo not drawn) [Compound 804]	–
< 100 nM	< 100 nM	< 100 nM	< 100 nM	100 to 1000 nM	100 to 1000 nM	–	–	CCN(c1nc(OC[C@@]23CCCN2C[C@H](F)C3)nc2c(F)c(-c3ccc(F)c4sc(N)c(C#N)c34)c(C(F)(F)F)cc12)[C@H]1CCN(C(=O)C2CC(OC)C2)C1 (stereo partly drawn) [Compound 777]	–
< 100 nM	100 to 1000 nM	100 to 1000 nM	< 100 nM	100 to 1000 nM	100 to 1000 nM	–	–	CCN(c1nc(OC[C@@]23CCCN2C[C@H](F)C3)nc2c(F)c(-c3ccc(F)c4sc(N)c(C#N)c34)c(C(F)(F)F)cc12)[C@H]1CCN(C(=O)[C@@H]2CC23CC3)C1 (atropisomer, axis not shown) [Compound 774]	–
< 100 nM	< 100 nM	< 100 nM	< 100 nM	< 100 nM	< 100 nM	–	–	CCN(c1nc(OC[C@@]23CCCN2C[C@H](F)C3)nc2c(F)c(-c3ccc(F)c4sc(N)c(C#N)c34)c(C(F)(F)F)cc12)[C@H]1CCN(C(=O)c2ccncn2)C1 (atropisomer, axis not shown) [Compound 730]	–
< 100 nM	< 100 nM	< 100 nM	< 100 nM	100 to 1000 nM	< 100 nM	–	–	CCOC(=O)N1CC[C@H](N(CC)c2nc(OC[C@@]34CCCN3C[C@H](F)C4)nc3c(F)c(-c4ccc(F)c5sc(N)c(C#N)c45)c(C(F)(F)F)cc23)C1 (atropisomer, axis not shown) [Compound 686]	–
–	–	–	–	–	–	< 100 nM	< 100 nM	[2H]C1([2H])CN2C[C@H](F)C[C@]2(COc2nc(N(CC)[C@H]3CCN(C(=O)C(C)C)C3)c3cc(C(F)(F)F)c(-c4ccc(F)c5sc(N)c(C#N)c45)c(F)c3n2)C1 [Compound 565]	IC50 ([2]; KRAS G12R-GppNHp/RAF1 RBD HTRF): < 100 nM; IC50 ([3]; KRAS G12D-GppNHp/RAF1 RBD HTRF): < 100 nM; IC50 ([5]; KRAS WT-GppNHp/RAF1 RBD HTRF): 100 to 1000 nM; IC50 ([6]; KRAS G12V-GppNHp/RAF1 RBD HTRF): 100 to 1000 nM
< 100 nM	100 to 1000 nM	100 to 1000 nM	< 100 nM	100 to 1000 nM	100 to 1000 nM	–	–	CCN(c1nc(OC[C@@]23CCCN2C[C@H](F)C3)nc2c(F)c(-c3ccc(F)c4sc(N)c(C#N)c34)c(C(F)(F)F)cc12)[C@H]1C[C@@H](COC)N(C(=O)N(C)C)C1 (atropisomer, axis not shown) [Compound 713]	–
–	–	–	–	–	–	100 to 1000 nM	100 to 1000 nM	CCC(=O)N1CC[C@@H](N(C)c2nc(OC[C@]34CCCN3C[C@H](F)C4)nc3c(F)c(-c4ccc(F)c5sc(N)c(C#N)c45)c(C(F)(F)F)cc23)[C@H]1C (atropisomer, axis not shown) [Compound 336]	IC50 ([2]; KRAS G12R-GppNHp/RAF1 RBD HTRF): > 10000 nM; IC50 ([3]; KRAS G12D-GppNHp/RAF1 RBD HTRF): 1000 to 10000 nM; IC50 ([5]; KRAS WT-GppNHp/RAF1 RBD HTRF): 1000 to 10000 nM; IC50 ([6]; KRAS G12V-GppNHp/RAF1 RBD HTRF): > 10000 nM
< 100 nM	< 100 nM	< 100 nM	< 100 nM	< 100 nM	100 to 1000 nM	–	–	CCN(c1nc(OC[C@@]23CCCN2C[C@H](F)C3)nc2c(F)c(-c3ccc(F)c4sc(N)c(C#N)c34)c(C(F)(F)F)cc12)[C@H]1CCN(C(=O)[C@@H](C)CF)C1 (atropisomer, axis not shown) [Compound 710]	–
